Peptide text beside a SMILES is read from it. * marks the point of attachment. Cbz = O=C(OCc1ccccc1)*
Tests used:
Assay type in all cases: cell-based, mouse
A20 = A20 protein level and degradation in bEnd.3 cells (western blot, cycloheximide chase); details: for A20 protein levels in Nat1-KD cells: Nat1-KD bEnd.3 cells, chloroquine 10 uM, E64d 5 ug/ml, sodium acetate over 24 h
Method: (§1) Nat1-KD in bEnd.3 cells were conducted by lentivirus transfection with Nat1 shRNA. Ctrl group was transfected with lentivirus expressing scrambled shRNA. The efficiency of Nat-1 KD was confirmed by western blotting (WB). TNFα(100 ng/ml) was applied in Ctrl or Nat-KD cells for 24 h with or without Ripk1 inhibitor, Nec1s (10 uM). Cell death was quantified with SYTOX green staining. […] Using Tandem Mass Tag (TMT) isobaric labeling mass spectrometry (MS), we identified 7707 proteins in Nat1-KD and Ctrl bEND.3 cells. […] Nat1-KD or Ctrl bEnd.3 cells were treated with Flag-TNFα (50 ng/ml) as the indicated time course. Ripk1 activation was examined by the blotting of p-S166 Ripk1 for cell lysates.
Panels b and c show bEnd.3 cells treated with cycloheximide (CHX, 250 ug/ml) to investigate the degradation kinetics of A20. […] Panels e and f show Chloroquine (CQ, 10 uM) and E64d (5 ug/ml) applied for inhibiting lysosomal protein degradation.
(§2) Since A20 is an important suppressor of RIPK1 activation, RIPK1 activation and Complex I assembly were next assessed in Nat1-KD or Ctrl bEnd.3 cells treated with TNFα.
To understand the mechanism by which A20 is decreased in Nat1-KD cells, it was first assessed whether this alteration was occurring at the protein or mRNA level. […] Nat1-KD and Ctrl bEnd.3 cells were treated with cycloheximide to investigate the kinetics of A20 degradation.

Nat1 mRNA = Nat1 mRNA expression in bEnd.3 cells; details: for insulin-induced Nat1 mRNA up-regulation: applied half an hour prior to insulin, MK-2206 5 uM, rapamycin 250 nM, oligomeric Aβ1-42 100 nM
From the text: FIG. 7: N-acetyltransferase 1 (Nat1) expression decreases in the brain ECs of AD. […] Fluorescence activated cell sorting (FACS) was used to isolate ECs (CD31^high and CD45^low) from single cell suspensions of brain tissues. The differentially expressed genes between APP/PS1 and WT groups were compared using edgeR and 116 genes were identified. […] Panels c and d show the expression of Nat1 protein (mouse)/Nat2 protein (human) in brain microvessels decreases during AD pathogenesis. Microvessels from mouse or human brains were isolated as described in Munikoti, et al. Journal of neuroscience methods 207, 80-85 (2012) and Boulay et al. Journal of visualized experiments: JoVE, e53208 (2015). […] Different concentrations of insulin were applied into the culture medium for 18 h. […] MK-2206(5 uM, Akt inhibitor), Repamycin (250 nM, mTOR inhibitor) or oligomeric Aβ1-42 (100 nM) was applied to the culture medium of bEnd.3 cells half an hour prior to the treatment of insulin.
To understand the mechanisms that mediate cerebral EC death and dysfunction in the pathogenesis of AD, fluorescence-activated cell sorting (FACS) was used to isolate ECs from the cerebrum of wild-type (WT) and APPswePSEN1dE9 (APP/PS1) mice (5-6 months of age). RNA sequencing (RNAseq) was used to profile gene expression between these groups, and differential gene expression was analyzed using edgeR (as described in Robinson, M. D., et al. Bioinformatics 26, 139-140 (2010)) (FIG. 7A). […] The decrease in Nat1 mRNA expression in cerebral ECs during AD pathogenesis was further confirmed by quantitative PCR (qPCR) (FIG. 7B). […] To validate the relevance of this finding in human AD pathogenesis, protein levels of NAT2 (the human homolog of mouse NAT1) in microvessels isolated from the brains of AD patients were assessed and compared to age-matched controls. […] To determine whether Nat1 expression might also be insulin-sensitive in immortalized mouse cerebral ECs (bEnd.3 cells), it was assessed whether increased concentrations of insulin could upregulate Nat1 (FIG. 7E).

bEnd.3 cells = assay: TNFα-induced cell death in bEnd.3 cells (SYTOX green); details: Nat1-KD bEnd.3 cells, TNFα 100 ng/ml; Nec1s 10 uM, 24 h; sodium acetate in culture medium
Method: Nat1-KD in bEnd.3 cells were conducted by lentivirus transfection with Nat1 shRNA. Ctrl group was transfected with lentivirus expressing scrambled shRNA. The efficiency of Nat-1 KD was confirmed by western blotting (WB). […] Cell death was quantified with SYTOX green staining. […] Ripk1 activation was examined by the blotting of p-S166 Ripk1 for cell lysates.
Mitochondria was stained with MitoTracker and imaged in live cells. […] For lysine acetylation, we first of all adjusted the protein concentrations to equalize A20 input in cell lysates of ctrl and Nat1-KD groups. Anti-acetylated lysine antibody was used for IP and anti-A20 antibody was used for WB.

RIPK1 = RIPK1 activation (p-S166, ubiquitination in complex I) in TNFα-treated bEnd.3 cells; details: Nat1-KD bEnd.3 cells, sodium acetate 100 mM, flag-TNFα 100 ng/ml
Method: as §1
Mitochondria was stained with MitoTracker and imaged in live cells. […] For N-terminal acetylation, subtiligase reaction as described in Yi et al. Cell 146, 607-620 (2011) was used. Biotin was added into the free N-terminal residue. […] For lysine acetylation, we first of all adjusted the protein concentrations to equalize A20 input in cell lysates of ctrl and Nat1-KD groups. Anti-acetylated lysine antibody was used for IP and anti-A20 antibody was used for WB. […]
as §2

[1] = system: acetyl coenzyme A (acetyl-CoA); assay: Acetyl-CoA concentration in bEnd.3 cells; details: Nat1-KD bEnd.3 cells, sodium acetate over 24 h
Method: FIG. 9A-H: Decreased acetylation of A20 promotes the susceptibility of Nat-1 KD cells to TNFα induced cell death. […] Mitochondria was stained with MitoTracker and imaged in live cells. The scale bar represents 20 and 5 um, respectively. […] For N-terminal acetylation, subtiligase reaction as described in Yi et al. Cell 146, 607-620 (2011) was used. Biotin was added into the free N-terminal residue. […] For lysine acetylation, we first of all adjusted the protein concentrations to equalize A20 input in cell lysates of ctrl and Nat1-KD groups. Anti-acetylated lysine antibody was used for IP and anti-A20 antibody was used for WB. […] Nat1-KD bEnd.3 cells were treated with flag-TNFα (100 ng/ml) as the indicated time course. […]
Analysis of Nat1 knockout mice previously reported increased mitochondrial damage and fragmentation (Camporez, J. P. et al. Proceedings of the National Academy of Sciences of the United States of America 114, E11285-E11292 (2017)). […] Since Nat1 deficiency affects metabolism which may affect the cellular levels of acetyl-CoA, the concentration of total acetyl-CoA in Nat1-KD cells was determined. […] Further, supplementation with sodium acetate is also able to rescue the hyperactivation of RIPK1 in Nat1-KD cells in response to TNFα, as measured by RIPK1 ubiquitination (FIG. 9G). […]

CCOC(=O)[C@H]1O[C@@H]1C(=O)N[C@@H](CC(C)C)C(=O)NCCC(C)C [E64D]
A20 protein levels in Nat1-KD cells (A20): rescued

CC(C)C[C@@H](C=O)NC(=O)[C@H](CC(C)C)NC(=O)[C@H](CC(C)C)NC(=O)OCc1ccccc1 [MG132] (Cbz-Leu-Leu-Leu-aldehyde)
protein expression of A20 (A20; both Ctrl and Nat1-KD bEnd.3 cells, MG132 10 uM): reduced

NC1(c2ccc(-c3nc4ccn5c(=O)[nH]nc5c4cc3-c3ccccc3)cc2)CCC1 [MK-2206]
insulin-induced Nat1 mRNA up-regulation (Nat1 mRNA): negated

CN1C(=O)NC(Cc2c[nH]c3c(Cl)cccc23)C1=O (centres unmarked) [Nec-1s]
TNFα-induced cell death in Nat1-KD cells (bEnd.3 cells): rescued

CCN(CC)CCCC(C)Nc1ccnc2cc(Cl)ccc12 (centres unmarked) [chloroquine]
A20 protein levels in Nat1-KD cells (A20): rescued

CC(=O)[O-].[Na+] [sodium acetate]
hyperactivation of RIPK1 in response to TNFα, as measured by RIPK1 ubiquitination (RIPK1): rescue
acetyl-CoA in Nat1-KD cells [1]: rescue
TNFα-induced cell death in Nat1-KD cells (bEnd.3 cells): rescues
A20 protein levels in Nat1-KD cells (A20): rescue

insulin: exogenous insulin applied into the culture medium
Nat1 mRNA expression (Nat1 mRNA; different concentrations in culture medium, 18 h): increases

oligomeric Aβ1-42: oligomeric amyloid beta 1-42
insulin-induced Nat1 mRNA up-regulation (Nat1 mRNA): blocked

From US20210147842A1, “METHODS AND COMPOSITIONS FOR INHIBITING NECROPTOSIS IN NEUROVASCULAR AND/OR NEURODEGENERATIVE DISEASES OR DISORDERS” (President and Fellows of Harvard College, priority 2019, published 2021)
